Assay [1] deals with T1, human GR (Homo sapiens, UniProt P04150).
T1 sequence (P04150 1-777): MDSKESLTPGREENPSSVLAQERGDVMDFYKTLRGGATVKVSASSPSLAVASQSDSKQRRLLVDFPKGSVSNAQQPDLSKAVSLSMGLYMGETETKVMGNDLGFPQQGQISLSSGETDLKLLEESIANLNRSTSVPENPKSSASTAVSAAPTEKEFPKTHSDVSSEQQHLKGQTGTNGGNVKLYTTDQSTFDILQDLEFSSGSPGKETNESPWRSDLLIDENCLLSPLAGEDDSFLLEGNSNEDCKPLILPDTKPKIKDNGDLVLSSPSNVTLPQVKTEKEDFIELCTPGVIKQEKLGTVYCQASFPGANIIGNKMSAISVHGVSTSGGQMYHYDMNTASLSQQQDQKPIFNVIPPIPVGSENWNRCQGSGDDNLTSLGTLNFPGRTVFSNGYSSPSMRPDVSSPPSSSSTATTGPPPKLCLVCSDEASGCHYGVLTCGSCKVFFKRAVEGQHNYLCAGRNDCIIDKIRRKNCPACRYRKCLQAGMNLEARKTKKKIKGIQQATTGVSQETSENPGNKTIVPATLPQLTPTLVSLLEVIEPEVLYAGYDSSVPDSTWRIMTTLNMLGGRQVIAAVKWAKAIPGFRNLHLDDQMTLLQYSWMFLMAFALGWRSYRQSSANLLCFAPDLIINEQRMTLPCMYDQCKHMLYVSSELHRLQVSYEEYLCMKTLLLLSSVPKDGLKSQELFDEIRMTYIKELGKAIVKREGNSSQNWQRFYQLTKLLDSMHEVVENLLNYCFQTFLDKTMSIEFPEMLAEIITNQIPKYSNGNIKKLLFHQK
Description: Trans-Activation Modulation of Glucocorticoid Receptor (GRAMMER), MMTV-LUC reporter, agonist mode. The class given is cell-based. On the set-up: endogenous in cells. To be noted: for Emax: A549, A549 cells, maximum activity, read-out: Transactivation A549 Cells GRAMMER Emax; for EC50: A549 cells, inflection point, read-out: Transactivation A549 Cells GRAMMER IP. The essentials:
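Readout is luciferase from a modified MMTV LTR promoter after 24 h compound exposure alongside 10 nM dexamethasone (100% activity reference), DMSO ≤1%.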

In assay [2] the target is T1, human GR. Put plainly: Transrepression Assay (GITAR), TNFα-β-lactamase reporter in U937 cells. It is filed as cell-based. On the set-up: U937 cells contain an endogenous glucocorticoid receptor (GR); endogenous in cells; host or cells: U937 cells stably transfected with the TNF-alpha promoter/beta-lactamase reporter. To be noted: for GITAR > GRAMM % SEP: GITAR Emax minus GRAMMER Emax; for EC50: U937 cells, inflection point, read-out: Transrepression U937 Cells GITAR IP. The essentials:
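First, U937 reporter cells (TNF-α promoter–β-lactamase, native GR) received compound for 30–45 min at 37 °C. Next, PMA (5 ng/ml) and LPS (100 ng/ml) final were added for about 18 hr. Finally, CCF2-AM loading gave the read-out, with 100 nM dexamethasone as 100%.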

[3] abbreviates: U-937, U937 cells, maximum activity, read-out: Transrepression U937 Cells GITAR Emax.
[4] abbreviates: U-937, activity repressed by 100 nM dexamethasone alone set as 100%, read-out: maximal activity in the transrepression (GITAR) assay.

Turning to `C[C@]12Cc3cnn(-c4ccc(F)cc4)c3C=C1CC[C@@H]2CN(CCc1ccccc1F)S(=O)(=O)c1ccccc1F` [Example 86, 2-fluoro-N-[2-(2-fluorophenyl)ethyl]-N-{[(4αR,5S)-1-(4-fluorophenyl)-4α-methyl-1,4,4α,5,6,7-hexahydrocyclopenta[f]indazol-5-yl]methyl}benzenesulfonamide], the Emax on human GR [1] is 68.2%; on human GR [2] (setting [3]), 80.6%; on human GR [2] (setting [4]), > 5%. For the same compound, the values for the EC50 on human GR [1] and at human GR [2] were 68.6 nM and 262 nM, respectively. Also, the “GITAR > GRAMM % SEP” value at human GR [2] amounted to 12.4%.
As to `CCCS(=O)(=O)N(CCc1ccccc1F)C[C@H]1CCC2=Cc3c(cnn3-c3ccc(F)cc3)C[C@@]21C` [Example 87, N-[2-(2-fluorophenyl)ethyl]-N-{[(4αR,5S)-1-(4-fluorophenyl)-4α-methyl-1,4,4α,5,6,7-hexahydrocyclopenta[f]indazol-5-yl]methyl}propane-1-sulfonamide], the Emax at human GR [1] was 65.1%; at human GR [2] (setting [3]), 85.1%; at human GR [2] (setting [4]) it was > 5%. Also, the EC50 at human GR [1] stood at 231 nM; at human GR [2], 212 nM. Also, the “GITAR > GRAMM % SEP” value at human GR [2] is 20.0%.
With `C[C@]12Cc3cnn(-c4ccc(F)cc4)c3C=C1CC[C@@H]2CN(CCc1ccccc1F)S(=O)(=O)Cc1cccc(C(F)(F)F)c1` [Example 88, N-[2-(2-fluorophenyl)ethyl]-N-{[(4αR,5S)-1-(4-fluorophenyl)-4α-methyl-1,4,4α,5,6,7-hexahydrocyclopenta[f]indazol-5-yl]methyl}-1-[3-(trifluoromethyl)phenyl]methanesulfonamide], the Emax was 25.3% on human GR [1], 57.7% at human GR [2] (setting [3]) and > 5% on human GR [2] (setting [4]). Further, the EC50 at human GR [1] was determined as 618 nM; at human GR [2], 646 nM. Moreover, the “GITAR > GRAMM % SEP” value on human GR [2] was determined as 32.4%.
Consider `C[C@]12Cc3cnn(-c4ccc(F)cc4)c3C=C1CC[C@@H]2CN(CCc1ccccc1F)S(=O)(=O)CC(F)(F)F` [Example 89, 2,2,2-trifluoro-N-[2-(2-fluorophenyl)ethyl]-N-{[(4αR,5S)-1-(4-fluorophenyl)-4α-methyl-1,4,4α,5,6,7-hexahydrocyclopenta[f]indazol-5-yl]methyl}ethanesulfonamide], for which the results for the Emax on human GR [1], at human GR [2] (setting [3]) and at human GR [2] (setting [4]) were 81.4%, 95.6% and > 5%, respectively. Further, the values for the EC50 on human GR [1] and on human GR [2] were 119 nM and 138 nM, respectively. Moreover, on human GR [2], the “GITAR > GRAMM % SEP” value is 14.3%.
As for `COc1ccccc1CCN(C[C@H]1CCC2=Cc3c(cnn3-c3ccc(F)cc3)C[C@@]21C)S(=O)(=O)c1ccccc1F` [Example 90, 2-fluoro-N-{[(4αR,5S)-1-(4-fluorophenyl)-4α-methyl-1,4,4α,5,6,7-hexahydrocyclopenta[f]indazol-5-yl]methyl}-N-[2-(2-methoxyphenyl)ethyl]benzenesulfonamide], the figures for the Emax on human GR [1], on human GR [2] (setting [3]) and on human GR [2] (setting [4]) were 33.5%, 67.6% and > 5%, respectively. The EC50 is 354 nM at human GR [1] and 651 nM on human GR [2]. In addition, on human GR [2], the “GITAR > GRAMM % SEP” value was determined as 34.0%.
Turning to `Cc1ccc(CCN(C[C@H]2CCC3=Cc4c(cnn4-c4ccc(F)cc4)C[C@@]32C)S(=O)(=O)c2ccccc2F)cc1` [Example 91, 2-fluoro-N-{[(4αR,5S)-1-(4-fluorophenyl)-4α-methyl-1,4,4α,5,6,7-hexahydrocyclopenta[f]indazol-5-yl]methyl}-N-[2-(4-methylphenyl)ethyl]benzenesulfonamide], the Emax on human GR [1] was 10.7%; at human GR [2] (setting [3]) it was 61.5%; at human GR [2] (setting [4]), > 5%. Further, the figures for the EC50 on human GR [1] and on human GR [2] were 643 nM and 973 nM, respectively. Further, on human GR [2], the “GITAR > GRAMM % SEP” value worked out at 50.8%.
With `C[C@]12Cc3cnn(-c4ccc(F)cc4)c3C=C1CC[C@@H]2CN(CCc1ccccc1Cl)S(=O)(=O)c1ccccc1F` [Example 92, N-[2-(2-chlorophenyl)ethyl]-2-fluoro-N-{[(4αR,5S)-1-(4-fluorophenyl)-4α-methyl-1,4,4α,5,6,7-hexahydrocyclopenta[f]indazol-5-yl]methyl}benzenesulfonamide], the Emax on human GR [1] is 41.6%; on human GR [2] (setting [3]) it was 68.5%; at human GR [2] (setting [4]), > 5%. In addition, the EC50 amounted to 504 nM at human GR [1] and 493 nM on human GR [2]. In addition, on human GR [2], the “GITAR > GRAMM % SEP” value is 26.9%.
On to `CC(C1CCC2=Cc3c(cnn3-c3ccc(F)cc3)C[C@@]21C)N(CCc1ccccc1F)S(=O)(=O)CC(F)(F)F` (stereo partly drawn) [Example 93, 2,2,2-trifluoro-N-[2-(2-fluorophenyl)ethyl]-N-{1-[(4αR)-1-(4-fluorophenyl)-4α-methyl-1,4,4α,5,6,7-hexahydrocyclopenta[f]indazol-5-yl]ethyl}ethanesulfonamide], for which the Emax on human GR [1] is 50.9%; on human GR [2] (setting [3]) it was 71.8%; on human GR [2] (setting [4]), > 5%. Besides, the EC50 worked out at 296 nM at human GR [1] and 231 nM at human GR [2]. For the same compound, the “GITAR > GRAMM % SEP” value on human GR [2] is recorded as 20.8%.
Regarding `COCCN(C[C@H]1CCC2=Cc3c(cnn3-c3ccc(F)cc3)C[C@@]21C)S(=O)(=O)c1ccccc1F` [Example 94, 2-fluoro-N-{[(4αR,5S)-1-(4-fluorophenyl)-4α-methyl-1,4,4α,5,6,7-hexahydrocyclopenta[f]indazol-5-yl]methyl}-N-(2-methoxyethyl)benzenesulfonamide], the Emax at human GR [1] is 43.9%; at human GR [2] (setting [3]), 75.5%; at human GR [2] (setting [4]), > 5%. For the same compound, the EC50 at human GR [1] is 423 nM; on human GR [2], 412 nM. Further, the “GITAR > GRAMM % SEP” value on human GR [2] is recorded as 31.6%.

These data come from patent US8299048B2, “Hexahydrocyclopentyl[f]indazole sulfonamides and derivatives thereof as selective glucocorticoid receptor modulators” (Merck Sharp & Dohme Corp., priority 2008, dated 2012).
